Here are results for nine compounds from US6121264A, “Imidazole-substituted quinoxalinedione derivatives” (Yamanouchi Pharmaceutical Co., Ltd., priority 1996, dated 2000).

Where two headings read alike, the source gives them in different places.

The test system of data set [1] is NMDA receptors. The settings on record: in vivo; cited from earlier work.
Data set [2] deals with neuronal culture system. To be noted: compound alone; cited from earlier work.
Data set [3] has as its target AMPA receptor. Briefly: [3H]-AMPA binding inhibition activity. The settings on record: about 45 nM [3H]-AMPA, rat cerebral membrane, 45 minutes on ice water. The protocol: 1) Measurement of [^3 H]-AMPA binding inhibition activity:
A 0.5 ml portion in total volume of a reaction solution containing about 45 nM of [^3 H]-AMPA [2-amino-3-(3-hydroxy-5-methyl-4-isoxazole)propionicacid], about […] of rat cerebral membrane samples and each of the test compounds was allowed to undergo 45 minutes of the reaction on ice water. The amount of [^3 H]-AMPA bonded to the AMPA receptor was measured by a filtration method. The portion substituted by 10 μM of quisqualic acid among the total amount of binding was defined as the amount of specific binding. Evaluation of the test compounds was carried out by calculating the ratio of binding inhibition exerted on the specific binding.
As the test compounds, the compound of Example 3, which will be described later, was used as the compound of the present invention, and a compound described as Example 1 in the aforementioned reference 1, represented by the following formula (to be referred to as comparative compound 1 hereinafter), was used as a comparative compound. […]

Data set [4] relates to rat fetal hippocampus neurons. Briefly: Kainic acid neurotoxicity inhibition (LDH release) in primary culture of rat fetal hippocampus neurons. Type of data set: cell-based. To be noted: Neuron, 300 μM kainic acid, 24 hours, read-out: Anti-kainic acid neurotoxicity (IC50). An excerpt: 2) Measurement of kainic acid neurotoxicity inhibition activity:
The action of the compound of the present invention to inhibit kainic acid neurotoxicity was examined using a primary culture system of rat fetal hippocampus neurons.
Hippocampus was excised from the brain of a rat of 18 to 20 days of age and treated with enzymes papain and DNase I to disperse the cells. The cells were suspended in MEM containing 10% serum and inoculated in 4×10^5 cells/cm^2 portions into wells of a 48 well plate which has been treated in advance with poly-I-lysine, and the medium was exchanged with serum-free medium 24 hours thereafter. The medium exchange was carried out twice a week. The cells cultured for 6 days or more were used in the following test.
(2) Kainic acid neurotoxicity inhibition
The neurotoxicity was expressed as the activity of lactate dehydrogenase released in the culture medium caused by cell death. Cells exposed for 24 hours to serum-free medium containing 300 μM of kainic acid were used as the control, and the action of each of the same test compounds used in the above item 1) to inhibit neuronal death caused by kainic acid was evaluated by allowing each compound to act upon the neurons for 24 hours simultaneously with 300 μM of kainic acid.
Background: LDH leaks from cells whose membrane has failed.

Data set [5] has as its target AMPA receptor. To be noted: Data reported at the American Society of Neuroscience (1996); read-out: AMPA binding inhibition activity (IC50); cited from earlier work.
In data set [6] the test system is DBA/2 mice. The data set is described as follows: Audiogenic seizure inhibition action in DBA/2 mice. Type of data set: in vivo. To be noted: Mus musculus, ip, 0.25 h; DBA/2 male mice, intraperitoneal injection 15 minutes before sound stimulus (12 kHz, 120 dB); read-out: minimum effective dose (MED), inhibition of audiogenic seizure. As for the experimental part:
3) Measurement of audiogenic seizure inhibition action in DBA/2 mice
In a sound proof box, a total of 10 male mice of 21 to 28 days of age were exposed to auditory and stimulation by the sound of 12 kHz and 120 dB was applied for 1 minute or until the mice fell into a fit of convulsions. A compound to be tested (the compound of Example 3 which will be described later) was suspended in 0.5% methyl cellulose solution or dissolved in physiological saline and administered by intraperitoneal injection 15 minutes before the sound stimulus. The drug efficacy was evaluated by the presence or absence of spasm, and the minimum effective dose (MED) was calculated.

The subject of data set [7] is glycine receptor. The settings on record: in vivo; cited from earlier work.
Data set [8] relates to AMPA receptor. To be noted: in vivo; cited from earlier work.

As usually defined, the IC50 is the concentration at which inhibition is half-maximal.

Regarding `NC(CCCP(=O)(O)O)C(=O)O` (stereo not drawn) [2-amino-5-phosphonovalerianic acid], the “effect in nervous disorders induced by NMDA and in animal models of epilepsy and cerebral ischemia (in words)” value in data set [1] is recorded as “effective”. For the compound `NC(CCCCCP(=O)(O)O)C(=O)O` (stereo not drawn) [2-amino-7-phosphonoheptanoic acid], the “effect in nervous disorders induced by NMDA and in animal models of epilepsy and cerebral ischemia (in words)” value in data set [1] is “effective”. With `Cc1onc(O)c1CC(N)C(=O)O` (stereo not drawn) [AMPA, 2-amino-3-(3-hydroxy-5-methyl-4-isoxazolyl)propionic acid], in data set [2], the “action in neurotoxicity test (in words)” value was “weak action”. For the compound `O=C(O)Cn1c(=O)c(=O)[nH]c2cc([N+](=O)[O-])c(-n3ccnc3)cc21` [Comparative compound 1], the IC50 in data set [3] is 140 nM; in data set [4], 800 nM.

In the case of `O=c1[nH]c2cc(C(F)(F)F)c(N3CCOCC3)cc2n(CP(=O)(O)O)c1=O` [Comparative compound 2], the 50% inhibitory concentration (IC50) in data set [5] is 150 nM. Consider `O=c1[nH]c2cc([N+](=O)[O-])c(-n3ccnc3)cc2n(CCCCOS(=O)(=O)O)c1=O` [Example 3, 4-[2,3-dioxo-7-(1H-imidazol-1-yl)-6-nitro-1,2,3,4-tetrahydroquinoxalin-1-yl]butanesulfate], for which the half-maximal inhibitory concentration (IC50) in data set [3] is 39 nM; in data set [4] it was 160 nM. Moreover, the minimal effective dose in data set [6] was 3 mg/kg. Regarding `NC1CCN(O)C1=O` (stereo not drawn) [HA-966], the “effect in experimental animal model suffering from cerebral ischemia (in words)” value in data set [7] is “useful”. On to `NS(=O)(=O)c1cccc2c1c([N+](=O)[O-])cc1[nH]c(=O)c(=O)[nH]c12` [NBQX], for which the “effect in experimental animal model suffering from cerebral ischemia (in words)” value in data set [8] is given as “useful”.

In the case of `C=C(C)[C@H]1CN[C@H](C(=O)O)[C@H]1CC(=O)O` [kainic acid], the “action in neurotoxicity test (in words)” value in data set [2] was “induces by itself significant neuronal death”.
